# “Also recorded” adds a separate entry of the source.
# What was measured:
# LoVo = assay: Sensitivity of colon cancer cell lines to AKT1/2 inhibitor (cell killing); assay type: cell-based, human; settings: in vitro, grouping is relative
# From the text: (§1) FIG. 2. Cell lines used as a starting point for signature gene discovery. Nineteen colon cancer cell lines were phenotyped for sensitivity to the AKT1/2 inhibitor L-001154547.
# (§2) In order to identify a gene expression signature of growth factor signaling pathway deregulation in human tumors, six colon carcinoma cell lines HCT-8 (ATCC #CCL-244), LoVo (ATCC #CCL-229), COLO205 (ATCC #CLL-222), DLD-1 (ATCC #CCL-221), HCT-116 (ATCC #CCL-247), and HCT-15 (ATCC #CCL-225) were initially expression profiled by microarray to identify genes that are responsive to AKT1/2 small molecule inhibition. The six colon cancer cell lines were treated with either 4 μM AKT1/2 inhibitor L-001154547 ('547; 3-phenyl-2-(4-{[4-(5-pyridin-2-yl-1H-1,2,4-triazol-3-yl)piperidin-1-yl]methyl}phenyl)-1,6-naphthyridin-5(6H)-one; disclosed in WO2006065601) or 4 μM AKT1/2 inhibitor L-01173931 ('931; 6-Methyl-3-phenyl-2-(4-{[4-(5-pyridin-2-yl-1H-1,2,4-triazol-3-yl)piperidin-1-yl]-methyl}phenyl)-1,6-naphthyridin-5(6H)-one; disclosed in WO2006065601) for 6 or 24 hours. Two AKT1/2 inhibitors were used for the profiling experiments as a way to offset any off-target effects of any one compound.
# (§3) Discriminant analysis of responders and non-responders using post-dose changes of gene expression was 90% accurate in leave-one-out cross-validation (data not shown). Among these 1,600 genes, we focused on 399 genes that were tightly correlated (r>0.7) with changes in expression of IRS2 across this dataset, a key mediator of growth pathway signaling (FIG. 3B) (Hennessy et al., 2005, Nat. Rev. Drug Discov. 4:988-1004). Note that the sensitivity and resistance phenotypes shown in FIG. 1 are relative, not absolute.
# HCT-8 = assay: as above; assay type: cell-based, human; settings: in vitro, grouping is relative
# From the text: as §1, §2, §3
# HCT-116 = assay: as above; assay type: cell-based, human; settings: in vitro, grouping is relative
# From the text: as §1, §2, §3
# DLD-1 = assay: as above; assay type: cell-based, human; settings: in vitro, grouping is relative
# From the text: as §1, §2, §3
# COLO205 = assay: as above; assay type: cell-based, human; settings: in vitro, grouping is relative
# From the text: as §1, §2, §3
# HCT-15 = assay: as above; assay type: cell-based, human; settings: in vitro, grouping is relative
# From the text: as §1, §2, §3
# growth factor signature = assay: Signature inhibition in the connectivity map dataset; assay type: cell-based; settings: for Enrichment / Rank in terms of significance of signature inhibition: Growth Factor Signaling Pathway signature, connectivity map dataset; for Rank in terms of significance of signature inhibition: rank among all compounds; for rank in terms of significance of growth factor signature inhibition: among all compounds in the connectivity map dataset
# From the text: (§4) To further validate the growth factor signature, we leveraged signatures of drug response from the connectivity map dataset (Lamb et al., 2006, Science 313:1929-1935). This dataset comprises mRNA expression data for 164 distinct small molecules, representing 453 individual compound treatment experiments. These small molecule inhibitors include the PI3K inhibitors wortmannin and LY-294002 and the mTOR inhibitor sirolimus. We surmised that if the growth factor signature truly represents activation of the PI3K pathway, these compounds should have an inhibitory effect on the signature. […] In contrast, other perturbagens in the connectivity map dataset either have no effect, a less significant inhibitory effect, or an activating effect on the growth factor signaling signature. […] For example, while LY-294002 was the top ranked compound in terms of significance of proliferation signature inhibition, sirolimus was ranked fifth, and wortmannin was ranked 23rd (Table 12).
# proliferation signature = assay: as above; assay type: cell-based; settings: for Enrichment / Rank in terms of significance of signature inhibition: Proliferation signature, connectivity map dataset; for Rank in terms of significance of signature inhibition: rank among all compounds
# From the text: as §4
# MYC signature [1] = assay: as above; assay type: cell-based; settings: c-MYC signature; for Rank in terms of significance of signature inhibition: rank among all compounds
# MYC signature [2] = assay: MYC signature (Bild et al.) in response to inhibition of oncology targets; assay type: cell-based; settings: cancer cell lines of FIG. 6C
# Protocol: FIG. 6. Relationship of AKT and MYC signatures. The AKT and MYC signature scores are highly correlated in the (A) colon (r=0.81) and (B) breast (r=0.82) tumor atlas datasets. The AKT signature score was calculated as described previously. […] (C) The Bild et al. MYC signature is inhibited by small molecule inhibitors of AKT, cMET and FGFR2, but not by taxol or inhibition of KSP. […] Experiments are listed on the left side of the heatmap (HCT116: colon cancer cells, LoVo: colon cancer cells, GTL-16: gastric cancer cells, EBC-1: lung cancer cells, KATO III: gastric cancer cells, SUM52: breast cancer cells). The drug (taxol) or drug target (all others) profiled in each experiment is indicated along the right side of the heatmap.
# Bild et al. published a gene expression signature that was regulated in response to cMYC (also known as MYC) overexpression in primary human mammary epithelial cells (2006, Nature, 439:353-357). This MYC signature was analyzed in the context of tumor expression atlas data. The tumor expression atlas is a collection of gene expression data measured in several different types of human tumors, including breast, colon, gastric, kidney, and lung tumors. […] Therefore, we assessed the regulation of the MYC signature in response to inhibition of AKT and other oncology targets. […]
# INSR = assay: mRNA expression of growth factor receptors after growth factor treatment (microarray); assay type: cell-based, human; settings: MCF7 and HT29 cells; 100 ng/ml (heregulin 30 ng/ml)
# Protocol: (§5) FIG. 29. Negative feedback induced by growth factors. The data presented represents the effect of each growth factor on the mRNA expression of (A) EGFR, (B) ERBB3, (C) INSR, or (D) a recently published signature of aberrant PTEN activity. The Y-axes represent the log(10) ratio of expression relative to vehicle. […] The X-axes represent the time point after growth factor addition.
# (§6) MCF-7 and HT-29 cell lines were seeded in 6-well plates to achieve 40-50% confluence at the time of growth factor addition. Cells were serum starved for 24 hours in 0.2% charcoal stripped serum, and growth factors were added at 100 ng/ml (EGF, IGF, insulin, b-FGF) or 30 ng/ml (heregulin). Concentrations of growth factors were chosen to give maximal activation of growth factor receptors as judged by receptor auto-phosphorylation. Activation of growth factor receptor pathways after growth factor addition was confirmed by Western analysis of phosphorylated MAPK and phosphorylated AKT in a separate plate of cells (data not shown). Cells were harvested at 30 minutes, 2 hours, 6 hours, 18 hours, and 24 hours after growth factor addition. DMSO (vehicle) treated cells were also harvested at each time point. RNA was prepared using RLT lysis reagent Qiagen spin columns according to manufacturer instructions.
# (§7) For growth factor and AKT inhibitor treated cells, total RNA was isolated from cell lines and converted to fluorescently labeled cRNA that was hybridized to DNA oligonucleotide microarrays as described previously (Hughes et al., 2001, Nat. Biotechnol. 19:342-347; Marton et al., 1998, Nat. Med. 4:1293-1301). Briefly, 4 μg of total RNA from each treated sample was used to synthesize dsDNA through reverse transcription. cRNA was produced by in vitro transcription and labeled post-synthetically with Cy3 or Cy5. cRNA derived from growth factor or AKT inhibitor treated cells (experimental sample) was hybridized against cRNA derived from vehicle treated samples (reference sample). Two hybridizations were done with each cRNA sample pair using fluorescent dye reversal strategy. For growth factor treated cells, microarrays contained 23,880 probes representing genes or expressed sequence tags (GEO platform GPL2029). For AKT inhibitor treated cells, microarrays contained 23,658 probes representing genes or expressed sequence tags (GEO platform GPL3991). Probe sequences were chosen to maximize gene specificity and minimize the 3′-replication bias inherent in reverse transcription of mRNA. In addition, all microarrays contained approximately 2,000 control probes for quality control purposes. All probes on the microarrays were synthesized in situ with inkjet technology (Agilent Technologies, Palo Alto, Calif.; Hughes et al, 2001, Nat. Biotechnol. 19:342-347). After hybridization, arrays were scanned and fluorescence intensities for each probe were recorded. Ratios of transcript abundance (experimental to control) were obtained following normalization and correction of the array intensity data. Gene expression data was analyzed using Rosetta Resolver gene expression analysis software (version 7.0, Rosetta Biosoftware, Seattle, Wash.) and MATLAB (The MathWorks, Natick, Mass.).
# (§8) As such, care should be taken when using mRNA levels of ERBB3 or INSR as a surrogate for activity of signaling through these receptors.
# ERBB3 = assay: as above; assay type: cell-based, human; settings: MCF7 and HT29 cells; 100 ng/ml (heregulin 30 ng/ml)
# Protocol: as §5, §6, §7, §8
# EGFR = assay: as above; assay type: cell-based, human; settings: MCF7 and HT29 cells; 100 ng/ml (heregulin 30 ng/ml)
# Protocol: as §5, §6, §7, §8
# [3] = test system: growth factor signaling pathway signature; assay: Regulation of the growth factor signaling pathway signature by growth factors and inhibitors; assay type: cell-based; settings: HT29 and MCF7 cells; 0.5, 2, 6, 18, or 24 hours
# From the text: FIG. 9. Inverse regulation of the growth factor signaling pathway signature by growth factors relative to growth factor pathway inhibitors. Genes listed in Table 5 are shown along the Y-axis, and various treatments are listed along the X-axis. The drug treatment/drug targets are listed along the left hand side, and functional groupings are listed along the right hand side. […] From the growth factor compendium, we show data from both colon (HT29) and breast (MCF7) cells treated with heregulin (a growth factor that binds to Erbb family receptors and activates PI3K/AKT signaling). Cells were treated with heregulin for 0.5, 2, 6, 18, or 24 hours.
# Because we developed this novel growth factor signaling pathway signature based on regulation by inhibitors of growth factor pathway signaling, we hypothesized that our signature genes would be inversely regulated in vitro by treatments that activate growth factor signaling.
Compound,INSR mRNA expression (INSR),ERBB3 mRNA expression (ERBB3),Enrichment (growth factor signature),Rank in terms of significance of signature inhibition (growth factor signature),rank in terms of significance of growth factor signature inhibition (growth factor signature),Enrichment (proliferation signature),Rank in terms of significance of signature inhibition (proliferation signature),Enrichment (MYC signature [1]),Rank in terms of significance of signature inhibition (MYC signature [1]),further results
"O=c1[nH]ccc2nc(-c3ccc(CN4CCC(c5n[nH]c(-c6ccccn6)n5)CC4)cc3)c(-c3ccccc3)cc12 [L-001154547, 3-phenyl-2-(4-{[4-(5-pyridin-2-yl-1H-1,2,4-triazol-3-yl)piperidin-1-yl]methyl}phenyl)-1,6-naphthyridin-5(6H)-one]",,,,,,,,,,sensitivity to AKT inhibition (LoVo): more sensitive; also recorded: relatively sensitive; sensitivity to AKT inhibition (HCT-8): more sensitive; also recorded: relatively sensitive; sensitivity to AKT inhibition (HCT-116): more resistance; also recorded: relatively resistant; sensitivity to AKT inhibition (DLD-1): more resistance; also recorded: relatively resistant; sensitivity to AKT inhibition (COLO205): more sensitive; also recorded: relatively sensitive; sensitivity to AKT inhibition (HCT-15): more resistance; also recorded: relatively resistant
O=c1cc(N2CCOCC2)oc2c(-c3ccccc3)cccc12 [LY-294002],,,−0.748,3,3,−0.527,1,−0.602,2,
CO[C@H]1C[C@@H]2CC[C@@H](C)[C@@](O)(O2)C(=O)C(=O)N2CCCC[C@H]2C(=O)O[C@H]([C@H](C)C[C@@H]2CC[C@@H](O)[C@H](OC)C2)CC(=O)[C@H](C)/C=C(\C)[C@@H](O)[C@@H](OC)C(=O)[C@H](C)C[C@H](C)/C=C/C=C/C=C/1C [sirolimus],,,−0.865,1,1,−0.482,5,−0.68,1,
CC(=O)O[C@H]1C(=O)[C@@]2(C)[C@H]([C@H](OC(=O)c3ccccc3)[C@]3(O)C[C@H](OC(=O)[C@H](O)[C@@H](NC(=O)c4ccccc4)c4ccccc4)C(C)=C1C3(C)C)[C@]1(OC(C)=O)CO[C@@H]1C[C@@H]2O [taxol],,,,,,,,,,inhibition of the MYC signature developed by Bild et al. (MYC signature [2]): not inhibited
COC[C@H]1OC(=O)c2coc3c2[C@@]1(C)C1=C(C3=O)[C@@H]2CCC(=O)[C@@]2(C)C[C@H]1OC(C)=O [wortmannin],,,−0.776,2,2,−0.387,23,−0.561,7,rank in terms of significance of proliferation signature inhibition (proliferation signature; among all compounds in the connectivity map dataset): 23

# Second part, led by results:
INSR mRNA expression (INSR),ERBB3 mRNA expression (ERBB3),Compound,Enrichment (growth factor signature),Rank in terms of significance of signature inhibition (growth factor signature),rank in terms of significance of growth factor signature inhibition (growth factor signature),Enrichment (proliferation signature),Rank in terms of significance of signature inhibition (proliferation signature),Enrichment (MYC signature [1]),Rank in terms of significance of signature inhibition (MYC signature [1]),further results
significant down-regulation,significant down-regulation,EGF: growth factor added to cells at 100 ng/ml,,,,,,,,EGFR mRNA expression (EGFR): did not result in down-regulation
significant down-regulation,significant down-regulation,IGF: growth factor added to cells at 100 ng/ml,,,,,,,,
significant down-regulation,significant down-regulation,b-FGF: growth factor added to cells at 100 ng/ml,,,,,,,,
significant down-regulation,significant down-regulation,heregulin,,,,,,,,regulation of the growth factor signaling pathway signature genes [3]: inverse regulation of the signature genes
significant down-regulation,significant down-regulation,insulin: growth factor added to cells at 100 ng/ml,,,,,,,,

# Reference: patent publication US8392127B2, “Methods and gene expression signature for assessing growth factor signaling pathway regulation status” (Merck Sharp & Dohme Corp., priority 2008, dated 2013)
